The structures appear in SMILES notation. Several values for one entry are separate records, joined by “and”; a condition that tells them apart may be missing. Identical values can stand only once.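 Briefly, cells in 96-well plates were exposed to five compound concentrations for 48 h, and endpoints were estimated by linear interpolation. The concentration for 50% growth inhibition is given as GI50. TGI: total growth inhibition.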 *1 amine or outer side, *2 acyl side, *3 side chain or, on linkers, in order; H or OH if unused. Where a SMILES comes first, the peptide text is derived from it. Bridges are numbered along the chain shown (N, C = ends). [ ]: non-standard residue; d: D form. ξ: configuration not given here. X4 = CCC(C)C(N[*:1])C(O)CC(=O)O[C@H](C(=O)C(C)C(=O)[*:2])C(C)C; NMeY = CN[C@@H](Cc1ccc(O)cc1)C(=O)O; X9 = O=C([C@@H]1CC(O)CN1[*:1])[*:2]; ξNMeL = CNC(CC(C)C)C(=O)O; ξT = CC(O)C(N)C(=O)O

Some test systems named below: UACC-257 melanoma; IGROV1 ovarian; MDA-N; MDA-MB-231 breast; SNB-19 CNS; CAKI-1 renal; SK-OV-3 ovarian; HL-60(TB) leukemia; CCRF-CEM leukemia.
Assay in all cases: inhibition of tumour cell growth, NCI panel, 48 h

As for `CC1CCC2(OC1)OC1CC3C4CC=C5CC(OC6OC(CO)C(OC7OC(C)C(OC8OC(C)C(O)C(O)C8O)C(O)C7O)C(O)C6OC6OC(C)C(O)C(O)C6O)CCC5(C)C4CCC3(C)C1C2C` (stereo not drawn), the TGI is 2.02 µM with UACC-257 melanoma; 2.59 µM in the experiment on IGROV1 ovarian; 1.43 µM with MDA-N; 1.33 µM in the experiment with MDA-MB-231 breast; 2.4 µM with SNB-19 CNS; 2.55 µM with CAKI-1 renal. The molecule also gave a TGI with SK-OV-3 ovarian of 2.31 µM.

`CCC(C)C1NC(=O)C(NC(=O)C(CC(C)C)N(C)C(=O)[C@@H]2CC(O)CN2)C(C)OC(=O)[C@H](Cc2ccc(OC)cc2)N(C)C(=O)[C@@H]2CCCN2C(=O)[C@H](CC(C)C)NC(=O)C(C)C(=O)[C@H](C(C)C)OC(=O)CC1O` (stereo partly drawn) (H-[X9][ξNMeL][ξT][X4]LP[NMeY](Me); ester 3-C): the TGI in the experiment on UACC-257 melanoma is 0.185 µM and 0.608 µM; with IGROV1 ovarian, 0.107 µM and 0.141 µM; in the experiment with MDA-N it was 0.106 µM; in the experiment on SNB-19 CNS, 0.45 µM and 0.148 µM; in the experiment on CAKI-1 renal it was 2.65 µM; in the experiment on SK-OV-3 ovarian, 0.349 µM and 0.0464 µM. Moreover, the GI50 in the experiment on HL-60(TB) leukemia is 0.035 µM; with MDA-MB-231 breast, 0.0369 µM; with CAKI-1 renal, 0.151 µM.

For `CCCCCCCCCCCCCCCCC(C(=O)O)C(O)(CC(=O)O)C(=O)O` (stereo not drawn), the TGI with UACC-257 melanoma is over 100 µM; in the experiment with HL-60(TB) leukemia, 34.4 µM; in the experiment on CCRF-CEM leukemia, 79.2 µM; in the experiment on IGROV1 ovarian, 46.4 µM; with MDA-N it was over 100 µM; with MDA-MB-231 breast, 75.8 µM. Moreover, the TGI with SNB-19 CNS came to 79.3 µM; with CAKI-1 renal, 46.3 µM; in the experiment with SK-OV-3 ovarian it was 36.1 µM.

With `O=C(O)CC(Cc1ccc2c(c1)OCO2)C(=O)O` (stereo not drawn), the TGI in the experiment on UACC-257 melanoma, in the experiment on HL-60(TB) leukemia, in the experiment with CCRF-CEM leukemia, in the experiment on IGROV1 ovarian, in the experiment on MDA-N and in the experiment with MDA-MB-231 breast was over 100 µM in each case. Moreover, the TGI in the experiment with SNB-19 CNS and in the experiment on SK-OV-3 ovarian was over 100 µM in each case.

In the case of `Cc1cccc(C(C)O)n1` (stereo not drawn), the TGI in the experiment on UACC-257 melanoma, in the experiment on HL-60(TB) leukemia, in the experiment on CCRF-CEM leukemia, in the experiment with IGROV1 ovarian, in the experiment on MDA-N and in the experiment with MDA-MB-231 breast was over 100 µM each time. Moreover, the TGI in the experiment with SNB-19 CNS, in the experiment with CAKI-1 renal and in the experiment with SK-OV-3 ovarian was over 100 µM in each case.

Regarding `O=c1c2cc(Br)ccc2oc2ccc(Br)cc12`, the TGI in the experiment with UACC-257 melanoma, in the experiment with HL-60(TB) leukemia, in the experiment with CCRF-CEM leukemia, with IGROV1 ovarian, in the experiment with MDA-N and with MDA-MB-231 breast was over 100 µM each time. The TGI in the experiment with SNB-19 CNS and in the experiment on CAKI-1 renal was over 100 µM each time.

On to `CC1(C)OC2C(CO)OC(n3ccc(=O)[nH]c3=O)C2O1` (stereo not drawn), for which the TGI with UACC-257 melanoma, in the experiment with HL-60(TB) leukemia, with CCRF-CEM leukemia, in the experiment on IGROV1 ovarian, in the experiment with MDA-N and in the experiment on MDA-MB-231 breast was over 100 µM in each case. In addition, the TGI in the experiment on SNB-19 CNS, in the experiment with CAKI-1 renal and in the experiment on SK-OV-3 ovarian was over 100 µM each time.

With `CCOC(=O)C1CCC/C1=N\N=C(N)N` (stereo not drawn) (tested in a mixture with another compound), the TGI in the experiment with UACC-257 melanoma, in the experiment with HL-60(TB) leukemia, in the experiment with CCRF-CEM leukemia, with IGROV1 ovarian, in the experiment with MDA-N and with MDA-MB-231 breast was over 100 µM in each case. Also, the TGI with SNB-19 CNS and in the experiment on SK-OV-3 ovarian was over 100 µM each time.

Regarding `COc1ccc(C2CC(=O)Nc3c2c(C)nn3-c2nc3ccccc3[nH]2)cc1` (stereo not drawn), the GI50 was 2.65 µM with UACC-257 melanoma; 3.13 µM in the experiment with HL-60(TB) leukemia; 2.11 µM in the experiment with CCRF-CEM leukemia; 2.38 µM with IGROV1 ovarian; 2.25 µM in the experiment with MDA-MB-231 breast; 4.72 µM in the experiment with SNB-19 CNS. In addition, the GI50 with CAKI-1 renal was 2.96 µM; in the experiment on SK-OV-3 ovarian, 3.23 µM. The TGI with UACC-257 melanoma is 8.21 µM; in the experiment with HL-60(TB) leukemia it was 9.83 µM; in the experiment on CCRF-CEM leukemia, over 27.9 µM; with IGROV1 ovarian it was 5.26 µM; in the experiment on MDA-MB-231 breast, 5.3 µM; in the experiment on SNB-19 CNS, over 100 µM. Besides, the TGI came to 9.12 µM with CAKI-1 renal and 7.83 µM in the experiment on SK-OV-3 ovarian.

Regarding `CC[C@@]1(O)C(=O)NCc2c1cc1n(c2=O)Cc2cc3cc4c(cc3nc2-1)OCO4`, the GI50 is 14.1 µM in the experiment with UACC-257 melanoma; 0.0462 µM in the experiment on HL-60(TB) leukemia; under 0.0128 µM with CCRF-CEM leukemia; 1.59 µM in the experiment on IGROV1 ovarian; 3.23 µM in the experiment on MDA-N; over 48.2 µM with MDA-MB-231 breast. In addition, the GI50 with SNB-19 CNS was 0.379 µM; in the experiment with CAKI-1 renal, 0.417 µM; with SK-OV-3 ovarian it was 1.5 µM. Moreover, the TGI was over 100 µM with UACC-257 melanoma; 0.502 µM with HL-60(TB) leukemia; 0.148 µM with CCRF-CEM leukemia; 63.4 µM in the experiment on IGROV1 ovarian; over 100 µM in the experiment with MDA-N; over 100 µM in the experiment on MDA-MB-231 breast. For the same molecule, the TGI with SNB-19 CNS is over 61.5 µM; with CAKI-1 renal, over 9.04 µM; in the experiment on SK-OV-3 ovarian it was over 82.2 µM.

Consider `[N-]=[N+]=Nc1ncc(-c2ccc(C(F)(F)F)cc2)c(NC2CCCCCC2)n1`, for which the GI50 with UACC-257 melanoma, with HL-60(TB) leukemia, in the experiment on CCRF-CEM leukemia, in the experiment with IGROV1 ovarian, in the experiment with MDA-MB-231 breast and in the experiment with SNB-19 CNS was over 10 µM each time. Moreover, the GI50 in the experiment with CAKI-1 renal and with SK-OV-3 ovarian was over 10 µM throughout. For the same molecule, the TGI in the experiment with UACC-257 melanoma, in the experiment on HL-60(TB) leukemia, with CCRF-CEM leukemia, in the experiment with IGROV1 ovarian, in the experiment with MDA-MB-231 breast and in the experiment with SNB-19 CNS was over 10 µM in each case. Further, the TGI in the experiment with CAKI-1 renal and in the experiment with SK-OV-3 ovarian was over 10 µM each time.

With `COC(=O)Nc1ccc2ccc3c(NC(=O)OC)ccc4ccc1c2c43` (tested in a mixture with another compound), the GI50 with UACC-257 melanoma is 21.8 µM; with HL-60(TB) leukemia, 9.95 µM; in the experiment on CCRF-CEM leukemia, 6.04 µM; in the experiment with IGROV1 ovarian, 7.98 µM; with MDA-MB-231 breast it was 7.95 µM; with SNB-19 CNS, 13.1 µM. Moreover, the GI50 is 6.44 µM in the experiment with CAKI-1 renal and 11.6 µM with SK-OV-3 ovarian. In addition, the TGI was over 50 µM in the experiment on UACC-257 melanoma; over 50 µM with HL-60(TB) leukemia; over 50 µM in the experiment on CCRF-CEM leukemia; over 50 µM in the experiment on IGROV1 ovarian; 35.7 µM with MDA-MB-231 breast; over 50 µM with SNB-19 CNS. Besides, the TGI was 27.4 µM with CAKI-1 renal and over 50 µM in the experiment on SK-OV-3 ovarian.

The record behind these values is PubChem BioAssay (NCI).
